Measurements taken from patent publication US6462055B2, “Alpha-methylbenzyl-containing thiourea inhibitors of herpes viruses containing a phenylenediamine group” (Wyeth, priority 1998, dated 2002).
In brackets after ≈: the same amount, converted by molar mass.

Columns and labels:
[1] = system: HCMV recombinant mutant virus (RV145); test: microbe, parasite or virus in culture; format: cell-based, human cytomegalovirus; conditions: for IC50: Human betaherpesvirus 5, read-out: IC50 ug/ml HCMV, HCMV
Excerpt: Microtiter plate assay. Ninety-six well plate cultures of human foreskin fibroblasts are infected in the presence of inhibitor compound with a HCMV recombinant mutant virus whose genome contains the prokaryotic beta-glucuronidase gene (Jefferson, R. A., S. M. Burgess, and D. Hirsh. 1986. Beta-glucuronidase from Escherichia coli as a gene fusion marker. Proc. Natl. Acad. Sci. USA 83:8447-8451) whose expression is controlled by a viral promoter. An example of such a virus is RV145 (Jones, T. R., V. P. Muzithras, and Y. Gluzman. 1991. Replacement mutagenesis of the human cytomegalovirus genome: US10 and US11 gene products are nonessential. J. Virol. 65:5860-5872). Since it is under the control of a viral promoter, beta-glucuronidase expression is an indirect indicator of growth and replication of HCMV in this assay. At 96 hours post-infection, the infected cell lysates are prepared (using 50 mM sodium phosphate [pH7.0]containing 0.1% Triton X-100 and 0.1% sarkosyl) and assayed for beta-glucuronidase activity using a substrate for the enzyme which when cleaved yields either a product which can be measured […] in a spectrophotometer or fluorescently in a microfluorimeter. Examples of such substrates are p-nitrophenyl-beta-D-glucuronide and methylumbelliferylglucuronide, respectively. The presence of an antiviral compound is indicated by the reduced expression of the HCMV genome resident beta-glucuronidase gene, compared to the absence of inhibitor. […] Data from this assay generated using varying amounts of inhibitor compound is also used to estimate the IC50 of an inhibitor compound.

HSV-1 = test: HSV Antiviral (ELISA) Assay in Vero cells; format: cell-based, herpes simplex virus type 1; conditions: HSV-1, Vero cells; for IC50: Human alphaherpesvirus 1, read-out: IC50 (ug/ml) HSV
Procedure: Vero cells (ATCC #CCL-81) are plated on 96-well tissue culture plates at 3.5×10^4 cells per 100 μl tissue culture DMEM (Dulbeccos modified Eagle media) supplemented with 2% fetal bovine serum (FBS) in each well. After overnight incubation @ 37° C. (in 5% CO2) and 30 minutes prior to infection with HSV-1 (multiplicity of infection equal to 0.006), cells are either untreated, or treated with test compound (multiple concentrations) or reference standard drug control. After approximately 24 hours post-infection incubation @ 37° C. (in 5% CO2), cells are fixed for ELISA assay. The primary antibody is murine anti-HSV glycoprotein D monoclonal primary antibody and the secondary antibody is goat anti-mouse IgG linked to β-galactosidase. Thus the extent of viral replication is determined by assessing β-galactosidase activity by quantifying the generation of the 4-methyl umbelliferone fluorescent cleavage product after addition of the methyl umbelliferyl-β-D-galactoside (Sigma #M1633) substrate on a microfluorimeter (365 nm for excitation and 450 nm for emission). Antiviral activity (IC50) of the test compound is determined by comparing the flourescence obtained in absence of compound to that obtained in the presence of compound.

VZV strain Ellen = test: VZV Antiviral (ELISA) Assay in human foreskin fibroblast cells; format: cell-based, varicella-zoster virus; conditions: for inhibition at 10 µg/mL / IC50: Human alphaherpesvirus 3, Fibroblast; for inhibition at 10 µg/mL: read-out: % inhibition 10 ug/ml VZV, 10 ug/ml; for IC50: read-out: IC50 (ug/ml) VZV
Procedure: For the generation of stock VZV to be used in the assay, VZV strain Ellen (ATCC #VR-1367) is used to infect human foreskin fibroblast (HFF) cells at low multiplicity (less than 0.1) and incubated overnight at 37° C. in 5% CO2. After the overnight incubation, the mixture of uninfected and VZV-infected HFF infected cells are then harvested and added to each well of 96-well plates (3.5×10^4 cells in 100 μl DMEM supplemented with 2% FBS) which contain test compound or the reference standard drug control (in 100 μl DMEM supplemented with 2% FBS per well). These cells are incubated for three days at 37° C. in 5% CO2, then fixed for ELISA assay. The primary antibody is murine anti-VZV glycoprotein II monoclonal antibody (Applied Biosystems, Inc. #13-145-100) and the secondary antibody is goat anti-mouse IgG linked to β-galactosidase. Thus the extent of viral replication is determined by assessing β-galactosidase activity by quantifying the generation of the 4-methyl umbelliferone fluorescent cleavage product after addition of the methyl umbelliferyl-β-D-galactoside (Sigma #M1633) substrate on a microfluorimeter (365 nm for excitation and 450 nm for emission). Antiviral activity (IC50) of the test compound is determined by comparing the flourescence obtained in absence of compound to that obtained in the presence of compound.

| Structure (SMILES) | IC50 ug/ml HCMV [1] | IC50 (ug/ml) VZV (VZV strain Ellen) | IC50 (VZV strain Ellen) | further results |
| --- | --- | --- | --- | --- |
| CCC(NC(=S)Nc1ccc(NC(=O)c2ccccc2F)cc1)c1ccc(F)cc1 (stereo not drawn) [Example 771] | 0.4 µg/mL (≈ 0.94 µM) |  |  | IC50 (ug/ml) HSV (HSV-1): >10 µg/mL |
| COC(=O)c1cccc(C(=O)Nc2ccc(NC(=S)Nc3cc(Cl)c(OC)cc3OC)cc2)c1 [Example 208] | >10 µg/mL | >10 µg/mL |  | % inhibition 10 ug/ml VZV (VZV strain Ellen): 25% |
| C[C@H](NC(=S)Nc1ccc(NC(=O)c2cc3ccccc3cn2)cc1)c1ccc(Br)cc1 [Example 1108] | 2.3 µg/mL (≈ 4.55 µM) | 0.05 µg/mL (≈ 0.0989 µM) |  |  |
| Nc1cccc(NC(=S)Nc2ccc(NC(=O)c3ccccc3F)cc2)c1 [Example 434] | 5 µg/mL (≈ 13.1 µM) | >10 µg/mL |  | % inhibition 10 ug/ml VZV (VZV strain Ellen): 0% |
| COc1ccccc1C(=O)Nc1ccc(NC(=S)N[C@@H](C)c2ccc(Br)cc2)cc1 [Example 1104] | 4.9 µg/mL (≈ 10.1 µM) | 0.09 µg/mL (≈ 0.186 µM) |  |  |
| O=C(Nc1ccc(NC(=S)Nc2cccc(S(=O)(=O)CCO)c2)cc1)c1ccccc1F [Example 969, 2-Fluoro-N-(4-{3-[3-(2-hydroxy-ethanesulfonyl)-phenyl]-thioureido}-phenyl)-benzamide] |  |  | > 10 µg/mL | IC50 [1]: > 10 µg/mL; inhibition at 10 µg/mL (VZV strain Ellen): 19% |
| O=C(Nc1ccc(NC(=S)Nc2cccc(CO)c2)cc1)c1ccccc1F [Example 476] | >10 µg/mL | >10 µg/mL |  | % inhibition 10 ug/ml VZV (VZV strain Ellen): 21% |
| CC(NC(=S)Nc1ccc(NC(=O)c2ccc(N(C)C)cc2)cc1)c1ccc(F)cc1 (stereo not drawn) [Example 765] | 2.3 µg/mL (≈ 5.27 µM) |  |  |  |
| O=C(Nc1ccc(NC(=S)Nc2cc(N3CCOCC3)cc(C(F)(F)F)c2)cc1)c1ccccc1F [Example 568] | >0.5 µg/mL | 2.3 µg/mL (≈ 4.44 µM) |  |  |
| C[C@H](NC(=S)Nc1ccc(NC(=O)c2ccc(F)cc2)cc1)c1ccc(Br)cc1 [Example 1103] | 3.4 µg/mL (≈ 7.2 µM) | 0.47 µg/mL (≈ 0.995 µM) |  |  |
| CC(NC(=S)Nc1ccc(NC(=O)c2cccc(Cl)c2)cc1)c1ccc(F)cc1 (stereo not drawn) [Example 761] | 1.5 µg/mL (≈ 3.51 µM) | >10 µg/mL |  |  |
| COc1ccc(C(=O)Nc2ccc(NC(=S)Nc3cc(Br)c(OC)cc3OC)cc2)cc1 [Example 830, N-{4-[3-(5-Bromo-2,4-dimethoxy-phenyl)-thioureido]-phenyl}-4-methoxy-benzamide] |  |  | > 10 µg/mL | IC50 [1]: > 10 µg/mL; inhibition at 10 µg/mL (VZV strain Ellen): 16% |
| CN(C)c1cc(NC(=S)Nc2ccc(NC(=O)c3ccccc3F)cc2)cc(C(F)(F)F)c1 [Example 567] |  |  | 2 µg/mL (≈ 4.2 µM) | IC50 [1]: > 0.5 µg/mL |
| CN(C)c1ccc(CNC(=S)Nc2ccc(NC(=O)c3ccccc3F)cc2)cc1C(F)(F)F [Example 610] | >0.5 µg/mL | >10 µg/mL |  |  |
| CC(NC(=S)Nc1ccc(NC(=O)c2ccccc2F)cc1)c1ccc(Br)cc1 (stereo not drawn) [Example 1102] | 1.7 µg/mL (≈ 3.6 µM) | 0.2 µg/mL (≈ 0.423 µM) |  |  |
| NC(=O)c1cccc(NC(=S)Nc2ccc(NC(=O)c3ccccc3F)cc2)c1 [Example 952, N-[4-[[[[3-(Aminocarbonyl)phenyl]amino]thioxomethyl]amino]phenyl]-2-fluoro-benzamide] |  |  | > 10 µg/mL | IC50 [1]: > 10 µg/mL; inhibition at 10 µg/mL (VZV strain Ellen): 22% |
| O=C(Nc1ccc(NC(=S)Nc2cc(N3CCCC3)cc(C(F)(F)F)c2)cc1)c1ccccc1F [Example 566] | >0.5 µg/mL | 2 µg/mL (≈ 3.98 µM) |  |  |

| Structure (SMILES) | IC50 ug/ml HCMV [1] | IC50 (ug/ml) VZV (VZV strain Ellen) | IC50 (VZV strain Ellen) | further results |
| --- | --- | --- | --- | --- |
| O=C(Nc1ccc(NC(=S)Nc2cccc(OC(F)(F)F)c2)cc1)c1ccccc1F [Example 961, 2-Fluoro-N-{4-[3-(3-trifluoromethoxy-phenyl)-thioureido]-phenyl}-benzamide] |  |  | > 10 µg/mL | IC50 [1]: > 10 µg/mL; inhibition at 10 µg/mL (VZV strain Ellen): 53% |
| O=C(Nc1ccc(NC(=S)NCCOc2cc(Cl)cc(Cl)c2)cc1)c1ccccc1F [Example 664] | >0.5 µg/mL |  |  |  |
| O=C(Nc1ccc(NC(=S)Nc2ccc(Br)c(Cl)c2)cc1)c1ccccc1F [Example 915, N-{4-[3-(4-Bromo-3-chloro-phenyl)-thioureido]-phenyl}-2-fluoro-benzamide] |  |  | > 10 µg/mL | IC50 [1]: > 10 µg/mL; inhibition at 10 µg/mL (VZV strain Ellen): 29% |
| O=C(Nc1ccc(NC(=S)NCCc2ccccc2)cc1)c1ccccc1F [Example 576] |  |  | 8 µg/mL (≈ 20.3 µM) | IC50 [1]: > 0.5 µg/mL |
| Nc1ccc(C(F)(F)F)cc1NC(=S)Nc1ccc(NC(=O)c2ccccc2F)cc1 [Example 999, N-{4-[3-(2-Amino-5-trifluoromethyl-phenyl)-thioureido]-phenyl}-2-fluoro-benzamide] |  |  | 9.4 µg/mL (≈ 21 µM) | IC50 [1]: 4 µg/mL (≈ 8.92 µM) |
| CN1CCN(c2cc(NC(=S)Nc3ccc(NC(=O)c4ccccc4F)cc3)cc(C(F)(F)F)c2)CC1 [Example 569] | >0.5 µg/mL | 3 µg/mL (≈ 5.64 µM) |  |  |
| CSc1ccc(NC(=S)Nc2ccc(NC(=O)c3ccccc3F)cc2)cc1Cl [Example 847, N-{4-[3-(3-Chloro-4-methylsulfanyl-phenyl)-thioureido]-phenyl}-2-fluoro-benzamide] |  |  | > 10 µg/mL | IC50 (HSV-1): 0.4 µg/mL (≈ 0.897 µM); inhibition at 10 µg/mL (VZV strain Ellen): 65% |
| O=C(Nc1ccc(NC(=S)Nc2ccc3[nH]cnc3c2)cc1)c1ccccc1F [Example 496] |  | >10 µg/mL |  | IC50 (ug/ml) HSV (HSV-1): >10 µg/mL; % inhibition 10 ug/ml VZV (VZV strain Ellen): 25% |
| COc1cc(OC)c(NC(=S)Nc2ccc(NC(=O)c3cccc(N(C)C)c3)cc2)cc1Cl [Example 136] |  | >10 µg/mL |  | IC50 (ug/ml) HSV (HSV-1): 1 µg/mL (≈ 2.06 µM); % inhibition 10 ug/ml VZV (VZV strain Ellen): 40% |
| COc1ccc(C(C)NC(=S)Nc2ccc(NC(=O)c3ccccc3F)cc2)cc1Cl (stereo not drawn) [Example 1000, N-(4-{3-[1-(3-Chloro-4-methoxy-phenyl)-ethyl]-thioureido}-phenyl)-2-fluoro-benzamide] |  |  | 6 µg/mL (≈ 13.1 µM) | IC50 (HSV-1): > 10 µg/mL |
| C[C@H](NC(=S)Nc1ccc(NC(=O)c2nccc3ccccc23)cc1)c1ccc(Br)cc1 [Example 1107] | 8.1 µg/mL (≈ 16 µM) | 0.05 µg/mL (≈ 0.0989 µM) |  |  |
| COc1cc(OC)c(NC(=S)Nc2ccc(NC(=O)c3ccccc3CO)cc2)cc1Cl [Example 185] |  | >10 µg/mL |  | IC50 (ug/ml) HSV (HSV-1): 3 µg/mL (≈ 6.36 µM); % inhibition 10 ug/ml VZV (VZV strain Ellen): 32% |
| O=C(Nc1ccc(NC(=S)NCCOc2cccc(Cl)c2)cc1)c1ccccc1F [Example 666] | >0.5 µg/mL |  |  |  |
| Nc1ccc(F)cc1NC(=S)Nc1ccc(NC(=O)c2ccccc2F)cc1 [Example 1007, N-{4-[3-(2-Amino-5-fluoro-phenyl)-thioureido]-phenyl}-2-fluoro-benzamide] |  |  | > 10 µg/mL | IC50 [1]: > 10 µg/mL |
| COc1c(Cl)cc(NC(=S)Nc2ccc(NC(=O)c3ccccc3F)cc2)cc1Cl [Example 874, N-{4-[3-(3,5-Dichloro-4-methoxy-phenyl)-thioureido]-phenyl}-2-fluoro-benzamide] |  |  | 3.5 µg/mL (≈ 7.54 µM) | IC50 (HSV-1): 5 µg/mL (≈ 10.8 µM); inhibition at 10 µg/mL (VZV strain Ellen): 75% |
| CC(NC(=S)Nc1ccc(NC(=O)c2ccccc2C(F)(F)F)cc1)c1ccc(F)cc1 (stereo not drawn) [Example 992, N-(4-{3-[1-(4-Fluoro-phenyl)-ethyl]-thioureido}-phenyl)-2-trifluoromethyl-benzamide] |  |  | 1.2 µg/mL (≈ 2.6 µM) | IC50 [1]: 4 µg/mL (≈ 8.67 µM) |
| COc1ccccc1C(=O)Nc1ccc(NC(=S)N[C@H](C)c2ccc(Br)cc2)cc1 [Example 1105] | 2.5 µg/mL (≈ 5.16 µM) | >7.5 µg/mL |  |  |
